Assay results: PMC6627438, “Terrosamycins A and B, Bioactive Polyether Ionophores from Streptomyces sp. RKND004 from Prince Edward Island Sediment” (Marine Drugs, 2019)
Like-named read-outs stand apart in the source and are kept apart here.

Legend:
[1] = tested on: human invasive breast ductal carcinoma cells (ATCC MCF-7); experiment: Cytotoxicity assay (alamarBlue), MCF-7; type: cell-based; conditions: read-out: IC50 MCF-7
Experimental: (§1) In light of this information, 1, 2 and the known polyether standards were tested against a human breast adenocarcinoma cell line (HTB-26) and a human invasive breast ductal carcinoma cell line (MCF-7). The compounds were also tested in a healthy human foreskin fibroblast cell line (BJ) and healthy Cercopithecus aethiops kidney epithelial cells (Vero) as an evaluation of cytotoxicity toward healthy cells.
(§2) The cytotoxicities of compounds 1–5 were evaluated using two healthy cell lines—human foreskin fibroblast cells (BJ, ATCC CRL-2522) and Cercopithecus aethiops kidney epithelial cells (Vero, ATCC CCL-81)—as well as two cancer cell lines—human breast adenocarcinoma cells (ATCC HTB-26) and human invasive breast ductal carcinoma cells (ATCC MCF-7). Each cell line was grown and maintained in 15 mL of Eagle’s Minimal Essential Medium in T75 cm^2 cell culture flasks with the exception of HTB-26 cells which were grown in Dulbecco’s Modified Eagle’s Medium/Nutrient Mixture F-12 Ham. All growth media were supplemented with 10% fetal bovine serum, […] penicillin and 0.1 mg/mL streptomycin; the growth medium for MCF-7 cells was also supplemented with 0.01 mg/mL human recombinant insulin. All cell cultures were incubated at 37 °C in a humidified atmosphere with 5% CO2 and culture media was refreshed every two to three days. The cells were not allowed to exceed 80% confluency. At 80% confluency, the cells were counted and diluted in their respective growth medium without addition of antibiotics. Aliquots of 90 μL were added to a microwell plate at a density of 1 × 10^4 cells/well for Vero and HTB-26 cells and 5 × 10^3 cells/well for BJ fibroblast and MCF-7 cells. The plates were incubated at 37 °C with 5% CO2 for 24 h to allow cells to adhere to the plates prior to treatment. The vehicle DMSO was used to dissolve 1 and 2 and was present at a final concentration of 1% in each of the wells. A dilution series was prepared for each cell line using the respective growth medium and 10 μL aliquots of each was added to the respective plate in concentrations ranging from 128 μg/mL to 1 μg/mL in triplicate. Positive control wells contained only the growth medium and DMSO, negative control wells contained the growth medium, DMSO and cells and positive treated controls contained the growth medium, cells and a concentration range of either zinc pyrithione (BJ fibroblast), phenoxyethanol (Vero), or doxorubicin (HTB-26 and MCF-7). All plates were incubated at 37 °C with 5% CO2 for 24 h (BJ fibroblast, Vero) or 72 h (HTB-26, MCF-7). Following incubation, alamarBlue was added to each well at a concentration of 10% (v/v). Fluorescence was measured at 560 nm excitation and 590 nm emission using a Thermo Scientific Varioskan Flash plate reader at time zero and 4 h after treatment with alamarBlue. The change in 590 nm emission reading was used to calculate percent cell viability after each treatment relative to the negative controls. The IC50 values of compounds 1–5 for each cell line were calculated using GraphPad Prism 6.0.

[2] = tested on: human breast adenocarcinoma cells (ATCC HTB-26); experiment: Cytotoxicity assay (alamarBlue), HTB-26; type: cell-based; conditions: read-out: IC50 HTB-26
Experimental: as §1, §2

[3] = tested on: methicillin-resistant S. aureus ATCC 33591 (MRSA); experiment: Antimicrobial assay (OD600 growth, CLSI microdilution), MRSA; type: cell-based, Staphyloccocus aureus; conditions: Staphylococcus aureus, 22 h, read-out: IC50 MRSA
Experimental: (§3) The antimicrobial activities of 1 and 2 were evaluated against a panel of pathogens. For comparison, three known polyether ionophore standards were selected and tested in parallel. […] Furthermore, salinomycin and monensin are currently approved and marketed as antibiotics and anticoccidial agents for cattle and poultry. The compounds were each tested against the Gram-positive pathogens methicillin-resistant Staphyloccocus aureus (MRSA), vancomycin resistant Enterococcus faecium (VRE) and Staphylococcus warneri, Gram-negative pathogens Pseudomonas aeruginosa and Proteus vulgaris, and the yeast Candida albicans. No activity was observed against P. aeruginosa, P. vulgaris or C. albicans at the highest concentration tested (128 μg/mL).
(§4) The antimicrobial activities of 1–5 were evaluated using a panel of human pathogens including methicillin-resistant S. aureus ATCC 33591 (MRSA), vancomycin resistant E. faecium EF379 (VRE), S. warneri ATCC 17917, P. aeruginosa ATCC 14210, P. vulgaris ATCC 12454 and C. albicans ATCC 14035. Assays were performed according to Clinical Laboratory Standards Institute testing standards in a 96-well plate and in triplicate. Compounds 1–5 were dissolved in sterile 20% DMSO and serially diluted creating a range of twelve concentrations between 128 μg/mL and 0.0625 μg/mL. A Thermo Scientific Varioskan Flash plate reader was used to determine cell growth by measuring the optical density at 600 nm at time zero and after incubation at 37 °C for 22 h. The change in OD600 was calculated, percentages of microorganism survival were compared to the vehicle control wells and IC50 values were determined using GraphPad Prism 6.0 (GraphPad Software, San Diego, CA, USA). Control antibiotics used were vancomycin for MRSA and S. warneri, rifampicin for VRE, gentamycin for P. aeruginosa, ciprofloxacin for P. vulgaris and nystatin for C. albicans.

[4] = tested on: S. warneri ATCC 17917; experiment: Antimicrobial assay (OD600 growth, CLSI microdilution), S. warneri; type: cell-based; conditions: Staphylococcus warneri, read-out: IC50 S. warneri
Experimental: as §3, §4

[5] = tested on: human foreskin fibroblast cells (BJ, ATCC CRL-2522); experiment: Cytotoxicity assay (alamarBlue), BJ; type: cell-based; conditions: 24 h, read-out: IC50 BJ
Experimental: as §1, §2

[6] = tested on: vancomycin resistant E. faecium EF379 (VRE); experiment: Antimicrobial assay (OD600 growth, CLSI microdilution), VRE; type: cell-based, Enterococcus faecium; conditions: 22 h, read-out: IC50 VRE
Experimental: The antimicrobial activities of 1 and 2 were evaluated against a panel of pathogens. For comparison, three known polyether ionophore standards were selected and tested in parallel. […] The compounds were each tested against the Gram-positive pathogens methicillin-resistant Staphyloccocus aureus (MRSA), vancomycin resistant Enterococcus faecium (VRE) and Staphylococcus warneri, Gram-negative pathogens Pseudomonas aeruginosa and Proteus vulgaris, and the yeast Candida albicans.
as §4, with “Compounds 1–5 were dissolved in sterile 20% DMSO and serially diluted creating a range of twelve concentrations between 128 μg/mL and 0.0625 μg/mL.” left out

[7] = tested on: Cercopithecus aethiops kidney epithelial cells (Vero, ATCC CCL-81); experiment: Cytotoxicity assay (alamarBlue), Vero; type: cell-based; conditions: Chlorocebus sabaeus, 24 h, read-out: IC50 Vero
Experimental: as §1, §2

[8] = MCF7, average ± SE (n = 3), 72 h, alamarBlue, breast cancer cell line
[9] = HTB26, average ± SE (n = 3), 72 h, alamarBlue, breast cancer cell line
[10] = average ± SE (n = 6), 37 °C, OD600
[11] = ATCC17917, average ± SE (n = 6), 37 °C, 22 h, OD600
[12] = average ± SE (n = 3), alamarBlue, healthy cell line

Compound | IC50 [1, 8] [µM] | IC50 [2, 9] [µM] | IC50 [3, 10] [nM] | IC50 [4, 11] [nM] | IC50 [5, 12] [µM] | IC50 [6, 10] [nM] | IC50 [7, 12] [µM] | IC50 [3] [nM] | IC50 [6] [nM] | IC50 ([4]; ATCC17917, 22 h) [nM] | IC50 ([1]; MCF7, 72 h) [µM] | IC50 ([2]; HTB26, 72 h) [µM] | IC50 [5] [µM] | IC50 [7] [µM]
COc1cccc2c1C(=O)c1c(O)c3c(c(O)c1C2=O)C[C@@](O)(C(=O)CO)C[C@@H]3O[C@H]1C[C@H](N)[C@H](O)[C@H](C)O1 [doxorubicin control, doxorubicin] | 0.8 ± 0.1 | 4 ± 2 |  |  |  |  |  |  |  |  |  |  |  | 
CC[C@@]1([C@@H]2O[C@@H]([C@H]3O[C@@](O)(CO)[C@H](C)C[C@@H]3C)C[C@@H]2C)CC[C@H]([C@]2(C)CC[C@]3(C[C@H](O)[C@@H](C)[C@@H]([C@@H](C)[C@@H](OC)[C@H](C)C(=O)O)O3)O2)O1 [monensin (4), monensin] | 7 ± 2 | 10 ± 1 | 1500 ± 100 | 2000 ± 200 | 245 ± 11 | 8000 ± 5000 | 10000 |  |  |  |  |  |  | 
CO[C@@H]1C[C@@H](C[C@H]2CC[C@H](C)[C@H]([C@@H](C)C(=O)O)O2)O[C@]2(O[C@](C)([C@H]3CC[C@@](C)([C@@H]4O[C@@H]([C@H]5O[C@@](O)(CO)[C@H](C)C[C@@H]5C)C[C@@H]4C)O3)C[C@H]2C)[C@@H]1C [nigericin (5), nigericin] | 9 ± 3 | 13 ± 2 | 200 ± 100 | 300 ± 100 | 221 ± 10 | 500 ± 100 | 61 ± 8 |  |  |  |  |  |  | 
CO[C@H]1/C=C/O[C@@]2(C)Oc3c(C)c(O)c4c(O)c(c(/C=N/N5CCN(C)CC5)c(O)c4c3C2=O)NC(=O)/C(C)=C\C=C\[C@H](C)[C@H](O)[C@@H](C)[C@@H](O)[C@@H](C)[C@H](OC(C)=O)[C@@H]1C [rifampicin control, rifampicin] |  |  |  |  |  | 1100 ± 100 |  |  |  |  |  |  |  | 
CC[C@@H](C(=O)[C@@H](C)[C@@H](O)[C@H](C)[C@@H]1O[C@@H]([C@@H](CC)C(=O)O)CC[C@@H]1C)[C@H]1O[C@]2(C=C[C@@H](O)[C@]3(CC[C@@](C)([C@H]4CC[C@](O)(CC)[C@H](C)O4)O3)O2)[C@H](C)C[C@@H]1C [salinomycin (3), salinomycin] | 10 ± 3 | 13 ± 1 |  | 900 ± 200 | 196 ± 3 |  | 78 ± 22 | 400 ± 100 | 800 ± 200 |  |  |  |  | 
C[C@@H]1C[C@H](C)[C@@](O)(C[C@H]2O[C@@](O)(C[C@@H](O)[C@@H](C)C(=O)[C@](C)(O)[C@@H]3CC[C@@](C)([C@H]4CC[C@@](C)(O)[C@H](C)O4)O3)[C@H](C)C[C@@H]2C)O[C@H]1C[C@H]1CC[C@H](C)[C@@H]([C@@H](C)C(=O)O)O1 [terrosamycin A (1), terrosamycin A] |  |  |  |  |  |  |  | 500 ± 200 | 580 ± 40 | 900 ± 300 | 6 ± 1 | 10.1 ± 0.6 | 79 ± 5 | 36 ± 6
CO[C@@]1(C[C@@H](O)[C@@H](C)C(=O)[C@](C)(O)[C@@H]2CC[C@@](C)([C@H]3CC[C@@](C)(O)[C@H](C)O3)O2)O[C@H](C[C@@]2(OC)O[C@@H](C[C@H]3CC[C@H](C)[C@@H]([C@@H](C)C(=O)O)O3)[C@H](C)C[C@@H]2C)[C@@H](C)C[C@H]1C [terrosamycin B (2), terrosamycin B] |  |  |  |  |  |  |  | 340 ± 40 | 500 ± 100 | 700 ± 100 | 3.9 ± 0.4 | 6 ± 1 | 267 ± 28 | 93 ± 4
CN[C@H](CC(C)C)C(=O)N[C@H]1C(=O)N[C@@H](CC(N)=O)C(=O)N[C@H]2C(=O)N[C@H]3C(=O)N[C@H](C(=O)N[C@H](C(=O)O)c4cc(O)cc(O)c4-c4cc3ccc4O)[C@H](O)c3ccc(c(Cl)c3)Oc3cc2cc(c3O[C@@H]2O[C@H](CO)[C@@H](O)[C@H](O)[C@H]2O[C@H]2C[C@](C)(N)[C@H](O)[C@H](C)O2)Oc2ccc(cc2Cl)[C@H]1O [vancomycin control, vancomycin] |  |  |  |  |  |  |  | 800 ± 100 |  | 530 ± 10 |  |  |  | 
